{"source": "patent US8013016B2", "about": "“Use of acetyl L-carnitine for the treatment of fibromyalgic syndrome” (Sigma-Tau Industrie Farmaceutiche Riunite S.p.A., priority 2004, dated 2011)", "key": {"[1]": {"test_system": "patients with fibromyalgic syndrome", "test": "Same clinical trial: secondary clinical parameters assessed with visual analogue scales", "format": "in vivo, human", "settings": "end of the treatment period (10 weeks), 1,500 mg/day; P<0.05", "description": "(§1) A multicentre, randomized, placebo-controlled, double-blind clinical trial was conducted, the aim of which was to evaluate the efficacy of acetyl L-carnitine in patients with fibromyalgic syndrome.\nAlso monitored were additional secondary parameters which will be discussed later.\nAcetyl L-carnitine was administered for a period of 10 consecutive weeks at a dose of 1,500 mg/day.\nDuring the first two weeks it was administered at the dose of 500 mg by the intramuscular route (i.m.) and 500 mg (twice daily) by the oral route (os).\nOver the following eight weeks acetyl L-carnitine was administered orally at doses of 500 mg three times daily."}, "[2]": {"test_system": "patients with fibromyalgic syndrome", "test": "Multicentre, randomized, placebo-controlled, double-blind clinical trial: evoked pain at ACR tender points (Pressure Threshold Meter algometer)", "format": "in vivo, human", "settings": "for Mean variation compared to baseline (evoked pain at ACR tender points, algometer): N = 42", "description": "as §1\nFor the evaluation of the efficacy of the compound according to the present invention evoked pain was monitored (as measured with the “Pressure Threshold Meter” algometer) in the osteoarticular regions indicated by “The American College of Rheumatology” (ACR) as being “tender points” characteristic of fibromyalgia syndrome. [WOLFE F, SMYTHE H A, YUNUS M B, et al. The American College of Rheumatology Criteria for the classification of fibromyalgia: report of the multicenter criteria committee; Arthritis Rheum 1990; 33(2): 160-172].\nThe patients included in the trial were patients of either gender aged from 25 to 65 years, who matched up to the above-mentioned American College of Rheumatology diagnostic criteria for fibromyalgia syndrome.\nThe diagnostic criteria for fibromyalgic syndrome had to be confirmed by the presence of all four of the following conditions: • bilateral diffuse pain in the axial skeleton; • bilateral diffuse pain in the upper limbs; • bilateral diffuse pain in the lower limbs; • pain located in 11 or more of the 18 anatomical regions listed in the map of tender points (ACR tender points) evoked with a standardised pressure manoeuvre.\nPatients with any one of the following conditions were not recruited into the trial: • presence of infections or inflammatory processes affecting the osteoarticular or tegumental apparatus; • history or presence of clinically important osteoarticular disease capable of confounding the evaluation of the study treatments (e.g. history of trauma); • previous orthopaedic surgery, spondyloarthrosis, connectivitis etc.; • clinical or laboratory evidence of dysthyroidism; • presence of systemic diseases (diabetes, kidney, cardiovascular and respiratory disease, psychiatric illness) or major pathological conditions capable of interfering with the evaluation of the study treatments; • continuous use of anti-inflammatory steroids during the last 3 months prior to the trial; • recent initiation of oestrogen-progestogen hormone replacement therapy (<1 year); • therapy with antidepressant drugs during the last 6 months prior to the trial; • therapy with non-steroidal anti-inflammatory drugs during the last 3 days prior to the trial; • therapy with analgesic drugs during the last 7 days prior to the trial; • participation in a clinical trial during the previous 6 months; • pregnant women, breastfeeding women, or women of childbearing age not adopting an adequate contraceptive method.\nAcetyl L-carnitine was administered for a period of 10 consecutive weeks at a dose of 1,500 mg/day. […]"}}}
{"smiles": "CC(=O)O[C@H](CC(=O)[O-])C[N+](C)(C)C", "note": "[Acetyl L-carnitine, acetyl L-carnitine]", "values": [{"measurement": "General well-being (visual analogue scale)", "setting": "[1]", "result": "statistically significant improvements"}, {"measurement": "Mental health (visual analogue scale)", "setting": "[1]", "result": "statistically significant improvements"}, {"measurement": "Physical health in general (visual analogue scale)", "setting": "[1]", "result": "statistically significant improvements"}, {"measurement": "Improvement in pain evoked in the osteoarticular regions (ACR tender points) as compared to the control group", "setting": "[2]; end of therapy (10 weeks), 1,500 mg/day, vs placebo", "result": "statistically significant improvement"}, {"measurement": "Mean variation compared to baseline (evoked pain at ACR tender points, algometer)", "setting": "[2]; visit 2 weeks, 1,500 mg/day (500 mg i.m. + 500 mg twice daily os), placebo 0.16 (0.39)", "result": "0.24 (0.64)"}, {"measurement": "Mean variation compared to baseline (evoked pain at ACR tender points, algometer)", "setting": "[2]; visit 6 weeks, 1,500 mg/day (first 2 weeks i.m. + os, then 500 mg three times daily os), placebo 0.45 (0.57)", "result": "0.55 (0.64)"}, {"measurement": "Mean variation compared to baseline (evoked pain at ACR tender points, algometer)", "setting": "[2]; visit 10 weeks (end of therapy), 1,500 mg/day, placebo 0.34 (0.66), P<0.05 Student's t-test", "result": "0.71 (0.71)"}]}
